Assay results reported in BindingDB's records for doi:10.1016/0014-2999(95)00786-5 (Cnrs Upr 9023, 1996).
Values joined by “and” are separate entries in the source; they are usually repeats but may differ in a detail not shown here. Equal entries are not always repeated. Structures can show the parent of a compound that is named as a salt.

Columns and labels:
[1] = target: 5-hydroxytryptamine receptor 4 (Mus musculus, UniProt P97288)
[2] = target: 5-hydroxytryptamine receptor 4 (Homo sapiens, UniProt Q13639)
Chain of 5-hydroxytryptamine receptor 4 (Homo sapiens, UniProt Q13639) (Q13639 whole entry): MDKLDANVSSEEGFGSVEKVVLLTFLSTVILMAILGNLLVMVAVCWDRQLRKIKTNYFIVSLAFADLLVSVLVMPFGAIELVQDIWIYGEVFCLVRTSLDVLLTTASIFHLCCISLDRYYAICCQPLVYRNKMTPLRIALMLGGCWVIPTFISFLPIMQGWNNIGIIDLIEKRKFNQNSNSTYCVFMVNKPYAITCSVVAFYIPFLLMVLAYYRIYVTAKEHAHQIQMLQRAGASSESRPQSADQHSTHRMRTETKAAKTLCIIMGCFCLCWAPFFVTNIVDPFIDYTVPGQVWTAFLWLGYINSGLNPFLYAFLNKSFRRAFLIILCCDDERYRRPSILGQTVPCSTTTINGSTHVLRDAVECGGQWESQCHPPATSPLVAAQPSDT

Chain of 5-hydroxytryptamine receptor 4 (Mus musculus, UniProt P97288) (P97288 whole entry): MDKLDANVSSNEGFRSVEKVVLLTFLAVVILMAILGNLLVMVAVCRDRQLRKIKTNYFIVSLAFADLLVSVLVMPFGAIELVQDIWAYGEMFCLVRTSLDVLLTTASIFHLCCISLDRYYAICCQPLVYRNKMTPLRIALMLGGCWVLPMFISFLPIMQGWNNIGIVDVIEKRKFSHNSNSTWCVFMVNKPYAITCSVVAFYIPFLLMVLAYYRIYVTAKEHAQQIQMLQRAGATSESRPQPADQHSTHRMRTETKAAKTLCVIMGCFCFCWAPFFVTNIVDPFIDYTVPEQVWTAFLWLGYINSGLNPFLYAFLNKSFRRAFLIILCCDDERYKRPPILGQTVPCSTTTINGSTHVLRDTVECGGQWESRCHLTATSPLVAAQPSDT

SMILES | Ki [1] | Ki [2]
COc1ccc2[nH]cc(C3=CCCNC3)c2c1 | 603 nM | –
COc1[nH]c2ccc(F)cc2c1C(=O)OCC1CCN(CCNS(C)(=O)=O)CC1 [GR-125487] | 0.03 nM | –
CCN(CC)CCOC(=O)c1cc(Cl)c(N)cc1OC [SDZ-205557] | 6.3 nM | 6.3 nM
COc1cc(N)c(Cl)cc1C(=O)NC1CN2CCC1CC2 (stereo not drawn) [ZACOPRIDE,R] | 1070 nM and 302 nM and 224 nM | –
CN1C2CCC1CC(NC(=O)n1c(=O)[nH]c3ccccc31)C2 (stereo not drawn) [DAU 6215] | 224 nM | –
CCCC[N+]12CCC(C1)C(NC(=O)c1cc(Cl)c(N)cc1OC)CC2 (stereo not drawn) [SB205149] | 37.1 nM | –
CCN(CC)CCNC(=O)c1cc(Cl)c(N)cc1OC [4-amino-5-chloro-N-[2-(diethylamino)ethyl]-2-methoxy-benzamide;hydrochloride] | 3980 nM | –
COc1cc(N)c(Cl)cc1C(=O)NC1CCN2CCCC1C2 (stereo not drawn) [NSC_3035240] | 97.7 nM | –
NCCc1c[nH]c2ccc(O)cc12 [[3H]-5-HT] | 79.4 nM | –
COc1ccc2[nH]c(=O)n(C(=O)OC3CC4CCC(C3)N4C)c2c1 (stereo not drawn) [DAU 6285] | 26.9 nM | 63.1 nM
CN1C2CCC1CC(OC(=O)c1c[nH]c3ccccc13)C2 (stereo not drawn) | 158 nM | 200 nM
COc1cc(N)c(Cl)cc1C(=O)NC1CCN(Cc2ccccc2)CC1 [4-Amino-N-(1-benzyl-piperidin-4-yl)-5-chloro-2-methoxy-benzamide(Clebopride)] | 53.7 nM | –
CCn1c(=O)n(C(=O)NC2CC3CCC(C2)N3C)c2ccccc21 (stereo not drawn) [BIMU 1] | 53.7 nM | –
COc1ccc2[nH]cc(CCN)c2c1 [tryptamine, 5-Methoxy] | 525 nM | 501 nM
COc1cc(N)c(Cl)cc1C(=O)NC1CCN(CCCOc2ccc(F)cc2)CC1OC (stereo not drawn) [4-amino-5-chloro-N-(1-(3-(4-fluorophenoxy)propyl)-3-methoxypiperidin-4-yl)-2-methoxybenzamide] | 51.3 nM | –
COc1cc(N)c(Cl)cc1C(=O)NC1CCN(CCCC(=O)N2CCC(N(C)C)CC2)CC1OC (stereo not drawn) [4-Amino-5-chloro-N-(1-{4-[4-(dimethylamino)-1-piperidinyl]-4-oxobutyl}-3-methoxy-4-piperidinyl)-2-methoxybenzamide] | 1.38 nM | –
CC(C)n1c(=O)n(C(=O)NC2C[C@H]3CC[C@@H](C2)N3C)c2ccccc21 (stereo partly drawn) [BIMU 8] | 25.1 nM | 79.4 nM
Cn1cc(C(=O)OCC2CCN(CCNS(C)(=O)=O)CC2)c2ccccc21 [GR 113808] | 0.31 nM | –
